Test results: patent US20240294531A1, “COVALENT HETEROCYCLES AND USES THEREOF” (Kumquat Biosciences Inc., priority 2022, published 2024)

What follows are compounds tested against BTK wildtype protein (Homo sapiens (Human), UniProt Q06187) (assay: BTK wildtype HTRF displacement assay). Details: 1-hour incubation; read-out: BTK (wt) IC50.
Assay type: binding
Procedure: (§1) The ability of a compound to bind BTK wildtype or BTK C481S proteins was measured using an HTRF displacement assay. The assay measures the ability of a compound to displace a tracer ligand bound to the active site of BTK wildtype or BTK C481 S proteins.
(§2) Test compounds were prepared as 10 mM stock solutions in DMSO (Fisher cat #BP231-100). Compounds to be assayed were dispensed using an Echo 650 acoustic dispenser (Beckman Coulter) on a 384 well plate in 6 doses applying four-fold dilutions from the highest concentration of 5 μM. N-terminal GST-tagged recombinant full-length BTK wildtype protein and BTK C481 S protein 2-659 were purchased from Carna Biosciences, Inc (Kobe, Japan). BTK wildtype or BTK C481S protein was separately incubated with compound in assay buffer containing kinase tracer 239 (Thermo Fisher) and Mab anti GST-Th (PerkinElmer). After a 1-hour incubation at room temperature, the HTRF signal was measured using SPARK plate reader (Tecan) using the TR fluorescence mode. The HTRF ratio is calculated for DMSO, no protein control and compound samples using the following equation: HTRF ratio=Emmision665/Emmision620×10^4. The signal for the no protein control samples was used to subtract background noise from the DMSO and compound samples. Background subtracted HTRF ratios are used to calculate the percent inhibition, where DMSO controls are set to 0 percent inhibition. The percent inhibition is plotted as a function of compound concentration and IC50 values were calculated from a four-parameter logistic fit in Prism v9.4 (GraphPad), where the bottom and top are constrained to 0 and 100, respectively.

Chain of BTK wildtype protein (Q06187 2-659): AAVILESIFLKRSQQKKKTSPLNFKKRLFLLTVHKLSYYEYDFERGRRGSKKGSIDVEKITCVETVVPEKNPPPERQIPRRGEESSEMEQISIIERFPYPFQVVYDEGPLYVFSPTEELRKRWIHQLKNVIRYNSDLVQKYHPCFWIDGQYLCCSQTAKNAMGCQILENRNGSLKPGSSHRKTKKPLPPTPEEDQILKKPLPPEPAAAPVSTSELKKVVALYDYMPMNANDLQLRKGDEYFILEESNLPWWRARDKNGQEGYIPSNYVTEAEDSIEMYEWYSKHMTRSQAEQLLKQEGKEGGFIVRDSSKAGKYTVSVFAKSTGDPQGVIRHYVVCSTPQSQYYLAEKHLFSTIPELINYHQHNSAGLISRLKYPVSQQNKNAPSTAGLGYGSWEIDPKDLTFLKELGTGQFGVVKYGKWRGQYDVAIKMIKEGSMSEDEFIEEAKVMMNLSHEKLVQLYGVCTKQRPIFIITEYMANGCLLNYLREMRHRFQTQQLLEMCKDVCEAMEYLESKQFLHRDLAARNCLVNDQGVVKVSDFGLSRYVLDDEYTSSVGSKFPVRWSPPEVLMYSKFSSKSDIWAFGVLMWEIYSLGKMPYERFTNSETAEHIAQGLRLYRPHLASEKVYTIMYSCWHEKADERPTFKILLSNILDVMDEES

Structure (SMILES) | IC50 [nM]
COc1ccc(F)cc1C(=O)NCc1ccc(-c2nn(CCN(C(=O)n3cncn3)C3CC3)c3ncnc(N)c23)cc1 [Compound 316, N-(2-(4-amino-3-(4-((5-fluoro-2-methoxybenzamido)methyl)phenyl)-1H-pyrazolo[3,4-d]pyrimidin-1-yl)ethyl)-N-cyclopropyl-1H-1,2,4-triazole-1-carboxamide] | > 1000
COc1ccc(F)cc1C(=O)NCc1ccc(-c2nn(CC3CC(O)CCN3C(=O)n3cncn3)c3ncnc(N)c23)cc1 (centres unmarked) [Compound 298, N-(4-(4-amino-1-((4-hydroxy-1-(1H-1,2,4-triazole-1-carbonyl)piperidin-2-yl)methyl)-1H-pyrazolo[3,4-d]pyrimidin-3-yl)benzyl)-5-fluoro-2-methoxybenzamide] | > 1000
COc1ccc(F)cc1C(=O)NCc1ccc(-c2nn(CCCN(C(=O)n3cncn3)C3CC3)c3ncnc(N)c23)cc1 [Compound 287, N-(3-(4-amino-3-(4-((5-fluoro-2-methoxybenzamido)methyl)phenyl)-1H-pyrazolo[3,4-d]pyrimidin-1-yl)propyl)-N-cyclopropyl-1H-1,2,4-triazole-1-carboxamide] | ≤ 1000
COc1ccc(F)cc1C(=O)NCc1ccc(-c2nn(C[C@H]3CCCCN3C(=O)n3cncn3)c3[nH]c(=O)[nH]c(=O)c23)cc1 [Compound 185, (R)-N-(4-(1-((1-(1H-1,2,4-triazole-1-carbonyl)piperidin-2-yl)methyl)-4,6-dioxo-4,5,6,7-tetrahydro-1H-pyrazolo[3,4-d]pyrimidin-3-yl)benzyl)-5-fluoro-2-methoxybenzamide] | > 1000
CN(C(=O)n1cncn1)C1CCC(n2nc(-c3ccc(Oc4ccccc4)cc3)c3c(N)ncnc32)C1 (centres unmarked) [Compound 216, N-(3-(4-amino-3-(4-phenoxyphenyl)-1H-pyrazolo[3,4-d]pyrimidin-1-yl)cyclopentyl)-N-methyl-1H-1,2,4-triazole-1-carboxamide] | ≤ 1000
CN(C(=O)n1cncn1)C1CCCC(n2nc(-c3ccc(Oc4ccccc4)cc3)c3c(N)ncnc32)C1 (centres unmarked) [Compound 233, N-(3-(4-amino-3-(4-phenoxyphenyl)-1H-pyrazolo[3,4-d]pyrimidin-1-yl)cyclohexyl)-N-methyl-1H-1,2,4-triazole-1-carboxamide] | ≤ 1000
COc1ccc(F)cc1C(=O)NCc1ccc(-c2nn(C3CCCC4(CCN4C(=O)n4cncn4)C3)c3ncnc(N)c23)cc1 (centres unmarked) [Compound 236, N-(4-(1-(1-(1H-1,2,4-triazole-1-carbonyl)-1-azaspiro[3.5]nonan-6-yl)-4-amino-1H-pyrazolo[3,4-d]pyrimidin-3-yl)benzyl)-5-fluoro-2-methoxybenzamide] | ≤ 1000
CN(C(=O)n1cncn1)C1CCCCC(n2nc(-c3ccc(Oc4ccccc4)cc3)c3c(N)ncnc32)C1 (centres unmarked) [Compound 314, N-(3-(4-amino-3-(4-phenoxyphenyl)-1H-pyrazolo[3,4-d]pyrimidin-1-yl)cycloheptyl)-N-methyl-1H-1,2,4-triazole-1-carboxamide] | ≤ 1000
COc1ccc(F)cc1C(=O)NCc1ccc(-c2nn(C3CCC(N(C)C(=O)n4cncn4)C3)c(N)c2C(N)=O)cc1 (centres unmarked) [Compound 201, N-(3-(5-amino-4-carbamoyl-3-(4-((5-fluoro-2-methoxybenzamido)methyl)phenyl)-1H-pyrazol-1-yl)cyclopentyl)-N-methyl-1H-1,2,4-triazole-1-carboxamide] | ≤ 1000
NC(=O)c1c(-c2ccc(Oc3ccccc3)cc2)nn2c1NCCC2C1CCCN(C(=O)n2cncn2)C1 (centres unmarked) [Compound 283, 7-(1-(1H-1,2,4-triazole-1-carbonyl)piperidin-3-yl)-2-(4-phenoxyphenyl)-4,5,6,7-tetrahydropyrazolo[1,5-a] pyrimidine-3-carboxamide] | > 1000
COc1ccc(F)cc1C(=O)NCc1ccc(-c2nn(C3CCCCC(N(C)C(=O)n4cncn4)C3)c3ncnc(N)c23)cc1 (centres unmarked) [Compound 278, N-(3-(4-amino-3-(4-((5-fluoro-2-methoxybenzamido)methyl)phenyl)-1H-pyrazolo[3,4-d]pyrimidin-1-yl)cycloheptyl)-N-methyl-1H-1,2,4-triazole-1-carboxamide] | ≤ 1000
CN(C(=O)n1cncn1)C1CCC(n2nc(-c3ccc(Oc4ccccc4)cc3)c(C(N)=O)c2N)C1 (centres unmarked) [Compound 295, N-(3-(5-amino-4-carbamoyl-3-(4-phenoxyphenyl)-1H-pyrazol-1-yl)cyclopentyl)-N-methyl-1H-1,2,4-triazole-1-carboxamide] | ≤ 1000
COc1ccc(F)cc1C(=O)NCc1ccc(-c2nn(C3CCCC(N(C)C(=O)n4cncn4)C3)c3ncnc(N)c23)cc1 (centres unmarked) [Compound 290, N-(3-(4-amino-3-(4-((5-fluoro-2-methoxybenzamido)methyl)phenyl)-1H-pyrazolo[3,4-d]pyrimidin-1-yl)cyclohexyl)-N-methyl-1H-1,2,4-triazole-1-carboxamide] | ≤ 1000

Each compound was assayed against BTK C481S protein (Homo sapiens (Human), UniProt Q06187, C481S) (assay: BTK C481S HTRF displacement assay). Details: 1-hour incubation.
Chain of BTK C481S protein (Q06187 2-659 C481S): as the sequence (Q06187 2-659) above, with C480S counted along it
Assay type: binding
Procedure: as §1, §2
The same assay was used to measure the activity of selected compounds of the formula TBM-L-hydrogen. Using the IC50 value observed for a given reversible test compound, the KI of the test compound can be assessed using the formula KI=IC50/(1+([Tracer]/Kd)), wherein the tracer concentration in the assay [Tracer] is 50 nM and the tracer Kd for BTK C481S is 54 nM.

Structure (SMILES) | IC50 [nM]
COc1ccc(F)cc1C(=O)NCc1ccc(-c2nn(CCN(C(=O)n3cncn3)C3CC3)c3ncnc(N)c23)cc1 [Compound 316, N-(2-(4-amino-3-(4-((5-fluoro-2-methoxybenzamido)methyl)phenyl)-1H-pyrazolo[3,4-d]pyrimidin-1-yl)ethyl)-N-cyclopropyl-1H-1,2,4-triazole-1-carboxamide] | > 1000
COc1ccc(F)cc1C(=O)NCc1ccc(-c2nn(CC3CC(O)CCN3C(=O)n3cncn3)c3ncnc(N)c23)cc1 (centres unmarked) [Compound 298, N-(4-(4-amino-1-((4-hydroxy-1-(1H-1,2,4-triazole-1-carbonyl)piperidin-2-yl)methyl)-1H-pyrazolo[3,4-d]pyrimidin-3-yl)benzyl)-5-fluoro-2-methoxybenzamide] | > 1000
COc1ccc(F)cc1C(=O)NCc1ccc(-c2nn(CCCN(C(=O)n3cncn3)C3CC3)c3ncnc(N)c23)cc1 [Compound 287, N-(3-(4-amino-3-(4-((5-fluoro-2-methoxybenzamido)methyl)phenyl)-1H-pyrazolo[3,4-d]pyrimidin-1-yl)propyl)-N-cyclopropyl-1H-1,2,4-triazole-1-carboxamide] | ≤ 1000
COc1ccc(F)cc1C(=O)NCc1ccc(-c2nn(C[C@H]3CCCCN3C(=O)n3cncn3)c3[nH]c(=O)[nH]c(=O)c23)cc1 [Compound 185, (R)-N-(4-(1-((1-(1H-1,2,4-triazole-1-carbonyl)piperidin-2-yl)methyl)-4,6-dioxo-4,5,6,7-tetrahydro-1H-pyrazolo[3,4-d]pyrimidin-3-yl)benzyl)-5-fluoro-2-methoxybenzamide] | ≤ 1000
COc1ccc(F)cc1C(=O)NCc1ccc(-c2nn(C3CCCCC(N(C)C(=O)n4cncn4)C3)c3ncnc(N)c23)cc1 (centres unmarked) [Compound 147, N-(3-(4-amino-3-(4-((5-fluoro-2-methoxybenzamido)methyl)phenyl)-1H-pyrazolo[3,4-d]pyrimidin-1-yl)cycloheptyl)-N-methyl-1H-1,2,4-triazole-1-carboxamide] | ≤ 1000
CN(C(=O)n1cncn1)C1CCC(n2nc(-c3ccc(Oc4ccccc4)cc3)c3c(N)ncnc32)C1 (centres unmarked) [Compound 116, N-(3-(4-amino-3-(4-phenoxyphenyl)-1H-pyrazolo[3,4-d]pyrimidin-1-yl)cyclopentyl)-N-methyl-1H-1,2,4-triazole-1-carboxamide] | ≤ 1000
COc1ccc(F)cc1C(=O)NCc1ccc(-c2nn(C(C)CC3CCCN3C(=O)n3cncn3)c3ncnc(N)c23)cc1 (centres unmarked) [Compound 166, N-(4-(1-(1-(1-(1H-1,2,4-triazole-1-carbonyl)pyrrolidin-2-yl)propan-2-yl)-4-amino-1H-pyrazolo[3,4-d]pyrimidin-3-yl)benzyl)-5-fluoro-2-methoxybenzamide] | ≤ 1000
CN(C(=O)n1cncn1)C1CCCCC(n2nc(-c3ccc(Oc4ccccc4)cc3)c3c(N)ncnc32)C1 (centres unmarked) [Compound 118, N-(3-(4-amino-3-(4-phenoxyphenyl)-1H-pyrazolo[3,4-d]pyrimidin-1-yl)cycloheptyl)-N-methyl-1H-1,2,4-triazole-1-carboxamide] | ≤ 1000
NC(=O)c1c(-c2ccc(Oc3ccccc3)cc2)nn2c1NCCC2C1CCN1C(=O)n1cncn1 (centres unmarked) [Compound 180, 7-(1-(1H-1,2,4-triazole-1-carbonyl)azetidin-2-yl)-2-(4-phenoxy-phenyl)-4,5,6,7-tetrahydropyrazolo [1,5-a]pyrimidine-3-carboxamide] | > 1000
COc1ccc(F)cc1C(=O)NCc1ccc(-c2nn(C(C)C(C)CN(C)C(=O)n3cncn3)c3ncnc(N)c23)cc1 (centres unmarked) [Compound 189, N-(3-(4-amino-3-(4-((5-fluoro-2-methoxybenzamido)methyl)phenyl)-1H-pyrazolo[3,4-d]pyrimidin-1-yl)-2-methylbutyl)-N-methyl-1H-1,2,4-triazole-1-carboxamide] | ≤ 1000
CN(C(=O)n1cncn1)C1CCC(n2nc(-c3ccc(Oc4ccccc4)cc3)c(C(N)=O)c2N)C1 (centres unmarked) [Compound 302, N-(3-(5-amino-4-carbamoyl-3-(4-phenoxyphenyl)-1H-pyrazol-1-yl)cyclopentyl)-N-methyl-1H-1,2,4-triazole-1-carboxamide] | ≤ 1000
CN(C(=O)n1cncn1)C1CCCC(n2nc(-c3ccc(Oc4ccccc4)cc3)c3c(N)ncnc32)C1 (centres unmarked) [Compound 160, N-(3-(4-amino-3-(4-phenoxyphenyl)-1H-pyrazolo[3,4-d]pyrimidin-1-yl)cyclohexyl)-N-methyl-1H-1,2,4-triazole-1-carboxamide] | ≤ 1000
COc1ccc(F)cc1C(=O)NCc1ccc(-c2nn(C3CCCC(N(C)C(=O)n4cncn4)C3)c3ncnc(N)c23)cc1 (centres unmarked) [Compound 177, N-(3-(4-amino-3-(4-((5-fluoro-2-methoxybenzamido)methyl)phenyl)-1H-pyrazolo[3,4-d]pyrimidin-1-yl)cyclohexyl)-N-methyl-1H-1,2,4-triazole-1-carboxamide] | ≤ 1000

Same assay, conditions: TBM-L-hydrogen compounds; KI=IC50/(1+([Tracer]/Kd)), [Tracer] 50 nM, Kd 54 nM

Structure (SMILES) | Ki [nM]
COc1ccc(F)cc1C(=O)NCc1ccc(-c2nn(CCNC3CC3)c3ncnc(N)c23)cc1 [reference compound] | < 660
COc1ccc(C)cc1C(=O)NCc1ccc(-c2nn(CC3CCCCN3)c3ncnc(N)c23)cc1 (centres unmarked) [reference compound] | < 600
CCNCC1CCNc2c(C(N)=O)c(-c3ccc(Oc4ccccc4)cc3)nn21 (centres unmarked) [reference compound] | < 1000
